# Assay results taken from patent US8507464B2, “Phosphoramidate alkylator prodrugs” (Threshold Pharmaceuticals, Inc., priority 2005, dated 2013).
# Experiments:
# NCI H460 xenograft [1] = assay: H460 xenograft mouse model with CDDP (Example 51); type: in vivo; conditions: 50 mg/kg daily or 100 mg/kg every three days, saline formulation
# Description: Female CB17/SCID mice (purchased from Charles River, Cambridge, Mass.), 7-8 weeks of age, were allowed to acclimatize for at least three days, and handled under pathogen-free conditions. Human non-small cell lung carcinoma cell line NCI H460 was obtained from the American Type Culture Collection. The cell lines were cultured and harvested as described in Example 47 above, and inoculated at 3×10^6 cells/animal in the peritoneal subcutaneous space. When the tumors grew to an average volume of 100 mm^3, treatment was initiated in which groups of 10 mice received vehicle (Group 1), CDDP at 3 or 6 mg/kg (Groups 2 and 3, respectively, IV one time), Compound 25 at 50 mg/kg in saline 5 times per week for two weeks (Group 4), Compound 25 at 100 mg/kg every three days for 5 times (Group 5) or the combination of each dose of Compound 25 with either 3 or 6 mg/kg of CDDP (Groups 6 and 7, respectively). Results for groups receiving 50 mg/kg of Compound 25 are illustrated in the FIG. 1.
# [2] = tested on: human (HLM) liver microsomal proteins; assay: Metabolic stability in liver microsomal protein; type: in vitro ADME; conditions: Table 2A, second study, 5 μM
# [3] = tested on: mouse (MLM) liver microsomal proteins; type: in vitro ADME; conditions: Table 1, first study, 5 μM
# [4] = In vivo plasma or tumor pharmacokinetics of Compound 25 (Table 4); set-up: species or system CD-1 mice (nude mice where noted)
# NCI H460 xenograft [5] = assay: NCI H460 non small cell lung carcinoma xenograft mouse model (Example 48); type: in vivo; conditions: day 29, vs vehicle
# Description: Female CB17/SCID mice (purchased from Charles River, Cambridge, Mass.), 7-8 weeks of age, were allowed to acclimatize for at least three days, and handled under pathogen-free conditions. Human […] cell line NCI H460 was obtained from the American Type Culture Collection. The cell lines were cultured and harvested according to the procedure described in Example 47 and inoculated at 1×10^6 cells/animal in the peritoneal subcutaneous space. When the tumors grew to an average volume of 100 mm^3 (day 8), […], as tabulated in the table below: Compound 25 (2.5 mg/ml in 10% PEG; administration route—i.p.) and Taxol (1 mg/ml in 5% EtOH, 5% Cremophor and 90% saline; administration—i.v. 2 h after administration of Compound 25). The body weight and tumor volumes were measured as described in Example 47 above.
# Results are presented in Table X2 based on tumor volume measurement on day 29 when vehicle treated mice had reached a volume of 946 mm^3. Groups of 5 mice receiving saline or no treatment were added in order to indicate any vehicle effects but are not used for comparisons in this analysis.
# [6] = tested on: HT-29 human colon carcinoma xenograft; assay: HT-29 human colon carcinoma xenograft mouse model (Example 47); type: in vivo; conditions: for % Inhibition vs Group 1: vs vehicle
# Description: Female CB17/SCID mice (purchased from Charles River, Cambridge, Mass.), 7-8 weeks of age, were allowed to acclimatize for at least three days, and handled under pathogen-free conditions. Human colon carcinoma cell line HT-29 was obtained from the American Type Culture Collection. The cell lines were cultured in RPMI 1640 media supplemented with 10% fetal bovine serum. Cells were maintained in a 37° C. incubator with 5% CO2. The HT-29 cells were harvested from culture and inoculated at 3×10^6 cells/animal in the peritoneal subcutaneous space. When the tumors grew to an average volume of 100 mm^3 (day 8), each group of 10 mice was administered, for three weeks, vehicle alone (saline and PEG (10 mL/kg each), Group 1), Compound 36 alone (dissolved in 30% cyclodextrin in PBS) at a daily dose of 20, 60, or 200 mg/kg (Groups 2, 3 and 4, respectively), and Compound 36 at a daily dose of 20, 60, and 200 mg/kg given 2-3 hours after a dose of 10 mg/kg of 5FU (in saline) (Group 5, 6 and 7, respectively) and compared to a group receiving only 5FU at 10 mg/kg (Group 8) as tabulated below.
# The body weight of each mouse was recorded twice per week. Growth of each xenograft was monitored by externally measuring tumors in two dimensions using a digital caliper twice per week. Tumor volume (V) was determined by the following equation: V=(L×W^2)/2, where L is the length and W is the width of a xenograft. Tumor volumes were measured twice weekly.
# in vivo = conditions: CD-1, mouse, 50 mg/kg
# [7] = 50 mg/kg i.v., 30% PEG/70% Saline, CD-1 mice
# [8] = CD-1, mouse, plasma, ip, 25 mg/kg, 25 mg/kg i.p., 10% PEG, CD-1 mice
# [9] = CD-1, mouse, plasma, ip, 50 mg/kg, 50 mg/kg i.p., Saline, CD-1 mice
# [10] = CD-1, mouse, plasma, iv, 50 mg/kg, 50 mg/kg i.v., 30% PEG/70% Saline, CD-1 mice
# [11] = CD-1, mouse, plasma, po, 50 mg/kg, 50 mg/kg p.o., Saline, CD-1 mice
# [12] = CD-1, mouse, plasma, po, 100 mg/kg, 100 mg/kg p.o., Saline, CD-1 mice
# [13] = nude, mouse, plasma, ip, 150 mg/kg, 150 mg/kg i.p., Saline, nude mice with H460 tumor
# [14] = nude, mouse, tumor, ip, 150 mg/kg, 150 mg/kg i.p., Saline, nude mice with H460 tumor, Tumor PK
compound,measurement,setting,value
Cn1c(COP(=O)(NCCBr)NCCBr)cnc1[N+](=O)[O-] [Compound 25],tumor volume and tumor growth delay,NCI H460 xenograft [1],significant dose related decrease in tumor volume and increase in tumor growth delay
same,Metabolic stability (% at 30 min) HLM,[2],127%
same,Metabolic stability (% at 30 min) MLM,[3],89%
same,AUC,[4]; [7],177 µg·h/mL
same,half-life,[4]; [7],10.1 min
same,Cmax,[4]; [8],6330 ng/mL
same,Tmax,[4]; [8],45 min
same,AUC,"[4]; CD-1, mouse, plasma, ip, 25 mg/kg, 25 mg/kg i.p., 10% PEG, CD-1 mice, read-out: AUC",247 µg·h/mL
same,half-life,"[4]; CD-1, mouse, plasma, ip, 25 mg/kg, 25 mg/kg i.p., 10% PEG, CD-1 mice, read-out: Half-life",4.43 min
same,AUC,"[4]; CD-1, mouse, plasma, ip, 50 mg/kg, 50 mg/kg i.p., 30% PEG/70% Saline, CD-1 mice, read-out: AUC",438 µg·h/mL
same,half-life,"[4]; CD-1, mouse, plasma, ip, 50 mg/kg, 50 mg/kg i.p., 30% PEG/70% Saline, CD-1 mice, read-out: Half-life",11 min
same,Cmax,[4]; [9],38500 ng/mL
same,Tmax,[4]; [9],5 min
same,AUC,"[4]; CD-1, mouse, plasma, ip, 50 mg/kg, 50 mg/kg i.p., Saline, CD-1 mice, read-out: AUC",635 µg·h/mL
same,half-life,"[4]; CD-1, mouse, plasma, ip, 50 mg/kg, 50 mg/kg i.p., Saline, CD-1 mice, read-out: Half-life",7.91 min
same,Cmax,[4]; [10],27500 ng/mL
same,Tmax,[4]; [10],2 min
same,AUC,"[4]; CD-1, mouse, plasma, iv, 50 mg/kg, 50 mg/kg i.v., 30% PEG/70% Saline, CD-1 mice, read-out: AUC",325 µg·h/mL
same,half-life,"[4]; CD-1, mouse, plasma, iv, 50 mg/kg, 50 mg/kg i.v., 30% PEG/70% Saline, CD-1 mice, read-out: Half-life",6.7 min
same,Cmax,[4]; [11],930 ng/mL
same,Tmax,[4]; [11],15 min
same,AUC,"[4]; CD-1, mouse, plasma, po, 50 mg/kg, 50 mg/kg p.o., Saline, CD-1 mice, read-out: AUC",40.4 µg·h/mL
same,half-life,"[4]; CD-1, mouse, plasma, po, 50 mg/kg, 50 mg/kg p.o., Saline, CD-1 mice, read-out: Half-life",25.7 min
same,Cmax,[4]; [12],15800 ng/mL
same,Tmax,[4]; [12],15 min
same,AUC,"[4]; CD-1, mouse, plasma, po, 100 mg/kg, 100 mg/kg p.o., Saline, CD-1 mice, read-out: AUC",784 µg·h/mL
same,half-life,"[4]; CD-1, mouse, plasma, po, 100 mg/kg, 100 mg/kg p.o., Saline, CD-1 mice, read-out: Half-life",95.2 min
same,bioavailability,"[4]; mouse, plasma, po, 50 mg/kg p.o., Saline, CD-1 mice, read-out: F (Bioavailability)",13.6%
same,Cmax,[4]; [13],90100 ng/mL
same,Tmax,[4]; [13],5 min
same,AUC,"[4]; nude, mouse, plasma, ip, 150 mg/kg, 150 mg/kg i.p., Saline, nude mice with H460 tumor, plasma, read-out: AUC",1240 µg·h/mL
same,half-life,"[4]; nude, mouse, plasma, ip, 150 mg/kg, 150 mg/kg i.p., Saline, nude mice with H460 tumor, plasma, read-out: Half-life",58.7 min
same,Cmax,[4]; [14],3380 ng/mL
same,Tmax,[4]; [14],15 min
same,AUC,"[4]; nude, mouse, tumor, ip, 150 mg/kg, 150 mg/kg i.p., Saline, nude mice with H460 tumor, Tumor PK, read-out: AUC",307 µg·h/mL
same,% Inhibition vs Group 2,NCI H460 xenograft [5]; Group 3: Compound 25 25 mg/kg (q1d × 5)/week × 2 weeks,50.1%
same,% Inhibition vs Group 2,NCI H460 xenograft [5]; Group 4: Compound 25 50 mg/kg (q2d × 3)/week × 2 weeks,52%
same,% Inhibition vs Group 2,NCI H460 xenograft [5]; Group 5: Compound 25 100 mg/kg (q7d × 1)/week × 2 weeks,46.7%
Cn1c(COP(=O)(NCCCl)NCCCl)cnc1[N+](=O)[O-] [Compound 36],% Inhibition vs Group 1,"[6]; Group 2: Compound 36 20 mg/kg daily, 3 weeks",34.6%
same,% Inhibition vs Group 1,[6]; Group 3: Compound 36 60 mg/kg daily,16.1%
same,% Inhibition vs Group 1,[6]; Group 4: Compound 36 200 mg/kg daily,20.2%
same,body weight and mortality,[6]; particularly high dose group,some degree of weight loss and occasional mortality
same,AUC,in vivo; ip,1440 µg·h/mL
same,Cmax,in vivo; ip,44000 ng/mL
same,Tmax,in vivo; ip,15 min
same,half-life,in vivo; ip,11 min
same,AUC,in vivo; iv,646 µg·h/mL
same,Cmax,in vivo; iv,27700 ng/mL
same,Tmax,in vivo; iv,5 min
same,half-life,in vivo; iv,14.1 min
